Experimental data reported in patent EP0013067A1, “Bicyclic beta-lactam antibacterial agents, their use in pharmaceutical compositions, processes for their preparation and intermediates for use in such processes” (BEECHAM GROUP PLC, priority 1978, dated 1980).

Assays:
Test in all cases: MIC, microtitre using Nutrient broth
Assay type in all cases: cell-based
[1] = test system: Staphylococcus aureus Russell; conditions: Staphylococcus aureus Russell; Microtitre using nutrient broth; inoculum 0.001 ml of a 10^-2 dilution for G + ve bacteria or a 10^-4 dilution for G - ve organisms; read-out: MIC Broth
From the text: (§1) The ninimum inhibitory concentrations (MIC) cf this compound required to inhibit the growth of various bacteria are tabulated balow: […]

Escherichia coli JT 39 = conditions: JT39; Escherichia coli JT 39; Microtitre using nutrient broth; inoculum 0.001 ml of a 10^-2 dilution for G + ve bacteria or a 10^-4 dilution for G - ve organisms; read-out: MIC Broth
From the text: as §1

Escherichia coli 0111 = conditions: Microtitre using nutrient broth, inoculum 0.001 ml of a 10^-2 dilution for G + ve bacteria or a 10^-4 dilution for G - ve organisms
From the text: as §1

Klebsiella aerogenes A = conditions: Klebsiella aerogenes A; Microtitre using nutrient broth; inoculum 0.001 ml of a 10^-2 dilution for G + ve bacteria or a 10^-4 dilution for G - ve organisms; read-out: MIC Broth
From the text: as §1

Pseudomonas aeruginosa A = conditions: Pseudomonas aeruginosa A; Microtitre using nutrient broth; inoculum 0.001 ml of a 10^-2 dilution for G + ve bacteria or a 10^-4 dilution for G - ve organisms; read-out: MIC Broth
From the text: as §1

Proteus mirabilis C977 = conditions: Proteus mirabilis C977; Microtitre using nutrient broth; inoculum 0.001 ml of a 10^-2 dilution for G + ve bacteria or a 10^-4 dilution for G - ve organisms; read-out: MIC Broth
From the text: as §1

[2] = test system: Staphylococcus aureus Oxford; conditions: Staphylococcus aureus Oxford; Microtitre using nutrient broth; inoculum 0.001 ml of a 10^-2 dilution for G + ve bacteria or a 10^-4 dilution for G - ve organisms; read-out: MIC Broth
From the text: as §1

Enterobacter cloacae N1 = conditions: Microtitre using nutrient broth, inoculum 0.001 ml of a 10^-2 dilution for G + ve bacteria or a 10^-4 dilution for G - ve organisms
From the text: as §1

[3] = test system: Staphylococcus aureus 1517; conditions: inoculum 0.001 ml of a 10^-2 dilution for G + ve bacteria or a 10^-4 dilution for G - ve organisms
From the text: as §1

| SMILES | MIC [1] | MIC (Escherichia coli JT 39) | MIC (Escherichia coli 0111) | MIC (Klebsiella aerogenes A) | MIC (Pseudomonas aeruginosa A) | MIC (Proteus mirabilis C977) | MIC [2] | MIC (Enterobacter cloacae N1) | MIC [3] |
| --- | --- | --- | --- | --- | --- | --- | --- | --- | --- |
| O=C(O)C1=C(CO)SC2CC(=O)N12 (stereo not drawn) [compound 19, Sodium 2-Hydroxymethyl penem-3-carboxylate] | 8 µg/mL | 62 µg/mL | 31 µg/mL | 31 µg/mL | 62 µg/mL | 62 µg/mL | 4 µg/mL |  |  |
| CC(=O)OCC1=C(C(=O)O)N2C(=O)CC2S1 (stereo not drawn) [compound 21, Sodium 2-Acetoxymethyl penem-3-carboxylate] | 8 µg/mL | 31 µg/mL | 8 µg/mL | 8 µg/mL | 500 µg/mL | 8 µg/mL |  | 62 µg/mL | 8 µg/mL |
